Results from ChEMBL document CHEMBL4507310, “Data for DCP probe A-1211212” (2021).

Tests used:
[1] = biological target: Ribosomal protein S6 kinase alpha-5 (Homo sapiens) (UniProt O75582); conditions: Compound concentration 1000.0 nM
[2] = biological target: Activin receptor type-1-like (Homo sapiens) (UniProt P37023); conditions: Compound concentration 1000.0 nM
[3] = test system: NCI-H146; assay: CellTiter-Glo Luminescent Cell Viability Assay (BCL-XL dependent cell line H146); type: functional, cell-based; conditions: Homo sapiens
[4] = biological target: Myosin light chain kinase 2, skeletal/cardiac muscle (Homo sapiens) (UniProt Q9H1R3); conditions: Compound concentration 1000.0 nM
[5] = biological target: Tumor necrosis factor (Homo sapiens) (UniProt P01375); assay: TNF-alpha (h) Eurofins-Cerep binding assay; parameters: ligand concentration 0.1 nM; conditions: filed as agonist, Compound concentration 10.0 uM
[6] = test system: Tyrosine-protein kinase ABL1 (Homo sapiens), P00519 [M351T]; conditions: Compound concentration 1000.0 nM
[7] = biological target: Serine/threonine-protein kinase 32C (Homo sapiens) (UniProt Q86UX6); conditions: Compound concentration 1000.0 nM
[8] = biological target: TRAF2 and NCK-interacting protein kinase (Homo sapiens) (UniProt Q9UKE5); conditions: Compound concentration 1000.0 nM
[9] = test system: Epidermal growth factor receptor (Homo sapiens), P00533 [UNDEFINED MUTATION]; conditions: Compound concentration 1000.0 nM
[10] = biological target: Phosphatidylinositol 4,5-bisphosphate 3-kinase catalytic subunit beta isoform (Homo sapiens) (UniProt P42338); conditions: Compound concentration 1000.0 nM
[11] = biological target: Fibroblast growth factor receptor 4 (Homo sapiens) (UniProt P22455); conditions: Compound concentration 1000.0 nM
[12] = test system: Mast/stem cell growth factor receptor Kit (Homo sapiens), P10721 [V559D,T670I]; conditions: Compound concentration 1000.0 nM
[13] = biological target: Testis-specific serine/threonine-protein kinase 3 (Homo sapiens) (UniProt Q96PN8); conditions: Compound concentration 1000.0 nM
[14] = test system: Receptor-type tyrosine-protein kinase FLT3 (Homo sapiens), P36888 [D835Y]; conditions: Compound concentration 1000.0 nM
[15] = biological target: Tyrosine-protein kinase JAK1 (Homo sapiens) (UniProt P23458); conditions: Compound concentration 1000.0 nM
[16] = biological target: Myosin light chain kinase, smooth muscle (Homo sapiens) (UniProt Q15746); conditions: Compound concentration 1000.0 nM
[17] = biological target: Hormonally up-regulated neu tumor-associated kinase (Homo sapiens) (UniProt P57058); conditions: Compound concentration 1000.0 nM
[18] = biological target: Ephrin type-B receptor 4 (Homo sapiens) (UniProt P54760); conditions: Compound concentration 1000.0 nM
[19] = biological target: Ephrin type-A receptor 2 (Homo sapiens) (UniProt P29317); conditions: Compound concentration 1000.0 nM
Sequence of Ephrin type-A receptor 2 (Homo sapiens) (P29317 whole entry): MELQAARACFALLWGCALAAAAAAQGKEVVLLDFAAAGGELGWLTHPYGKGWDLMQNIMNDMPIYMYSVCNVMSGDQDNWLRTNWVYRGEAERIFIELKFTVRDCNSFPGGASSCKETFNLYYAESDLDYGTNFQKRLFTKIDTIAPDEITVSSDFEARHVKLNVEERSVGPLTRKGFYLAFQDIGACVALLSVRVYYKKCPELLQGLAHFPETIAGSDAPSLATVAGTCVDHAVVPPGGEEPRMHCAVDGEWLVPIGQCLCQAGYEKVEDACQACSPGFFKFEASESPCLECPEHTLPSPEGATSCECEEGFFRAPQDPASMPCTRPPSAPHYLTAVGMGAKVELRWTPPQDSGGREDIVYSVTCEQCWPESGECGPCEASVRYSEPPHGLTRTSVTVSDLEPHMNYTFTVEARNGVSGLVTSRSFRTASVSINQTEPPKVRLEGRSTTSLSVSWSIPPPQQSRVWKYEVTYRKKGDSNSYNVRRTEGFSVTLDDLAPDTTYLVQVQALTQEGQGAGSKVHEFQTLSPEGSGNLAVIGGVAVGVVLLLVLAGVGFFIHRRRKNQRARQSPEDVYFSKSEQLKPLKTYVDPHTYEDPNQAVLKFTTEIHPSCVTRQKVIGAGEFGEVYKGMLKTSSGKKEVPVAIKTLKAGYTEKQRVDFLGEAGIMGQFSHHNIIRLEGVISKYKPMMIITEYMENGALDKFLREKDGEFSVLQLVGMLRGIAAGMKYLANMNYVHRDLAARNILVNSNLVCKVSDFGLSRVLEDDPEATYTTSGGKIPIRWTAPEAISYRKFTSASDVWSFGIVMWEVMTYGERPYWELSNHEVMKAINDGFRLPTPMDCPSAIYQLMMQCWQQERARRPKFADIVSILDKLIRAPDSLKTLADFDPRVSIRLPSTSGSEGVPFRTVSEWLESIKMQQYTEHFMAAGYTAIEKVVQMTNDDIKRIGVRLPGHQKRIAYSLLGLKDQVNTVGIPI

[20] = biological target: Mitogen-activated protein kinase kinase kinase 7 (Homo sapiens) (UniProt O43318); conditions: Compound concentration 1000.0 nM
[21] = biological target: Activin receptor type-1 (Homo sapiens) (UniProt Q04771); conditions: Compound concentration 1000.0 nM
[22] = test system: Epidermal growth factor receptor (Homo sapiens), P00533 [L858R,T790M]; conditions: Compound concentration 1000.0 nM
[23] = biological target: Peroxisome proliferator-activated receptor gamma (Homo sapiens) (UniProt P37231); assay: PPARgamma (h) Eurofins-Cerep binding assay; parameters: ligand concentration 5 nM; conditions: filed as agonist, Compound concentration 10.0 uM
[24] = biological target: Fibroblast growth factor receptor 2 (Homo sapiens) (UniProt P21802); conditions: Compound concentration 1000.0 nM
Sequence of Fibroblast growth factor receptor 2 (Homo sapiens) (P21802 22-821 limits assumed): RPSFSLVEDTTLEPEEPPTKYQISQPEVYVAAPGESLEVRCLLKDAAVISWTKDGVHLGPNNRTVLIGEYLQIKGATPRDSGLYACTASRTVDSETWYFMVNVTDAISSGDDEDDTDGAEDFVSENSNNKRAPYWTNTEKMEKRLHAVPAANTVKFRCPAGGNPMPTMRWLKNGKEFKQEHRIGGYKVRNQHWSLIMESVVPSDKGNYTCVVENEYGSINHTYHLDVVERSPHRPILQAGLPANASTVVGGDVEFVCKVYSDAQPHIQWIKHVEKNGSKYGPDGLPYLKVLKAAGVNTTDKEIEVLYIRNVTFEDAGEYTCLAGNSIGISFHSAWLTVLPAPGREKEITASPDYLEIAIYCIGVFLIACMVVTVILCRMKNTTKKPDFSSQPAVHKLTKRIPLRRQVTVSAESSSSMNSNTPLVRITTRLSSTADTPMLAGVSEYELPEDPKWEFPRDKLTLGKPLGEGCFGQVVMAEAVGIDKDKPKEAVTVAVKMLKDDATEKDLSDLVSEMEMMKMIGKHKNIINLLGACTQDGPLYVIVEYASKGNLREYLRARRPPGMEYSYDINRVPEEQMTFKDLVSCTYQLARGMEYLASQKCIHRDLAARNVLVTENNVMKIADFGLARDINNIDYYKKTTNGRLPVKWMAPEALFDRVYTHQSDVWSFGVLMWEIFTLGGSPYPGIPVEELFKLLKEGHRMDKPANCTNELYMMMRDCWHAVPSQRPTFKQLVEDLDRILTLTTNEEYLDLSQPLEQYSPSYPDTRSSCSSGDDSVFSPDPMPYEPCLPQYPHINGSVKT

[25] = biological target: SRSF protein kinase 3 (Homo sapiens) (UniProt Q9UPE1); conditions: Compound concentration 1000.0 nM
[26] = biological target: Membrane-associated tyrosine- and threonine-specific cdc2-inhibitory kinase (Homo sapiens) (UniProt Q99640); conditions: Compound concentration 1000.0 nM
[27] = biological target: Sodium-dependent dopamine transporter (Homo sapiens, UniProt Q01959); assay: dopamine transporter (h) Eurofins-Cerep binding assay; parameters: ligand concentration 4 nM; conditions: filed as antagonist, Compound concentration 10.0 uM
[28] = biological target: Mitogen-activated protein kinase 13 (Homo sapiens) (UniProt O15264); conditions: Compound concentration 1000.0 nM
[29] = biological target: Serine/threonine-protein kinase Chk2 (Homo sapiens) (UniProt O96017); conditions: Compound concentration 1000.0 nM
[30] = biological target: Cyclin-dependent kinase 2 homolog (Plasmodium falciparum (isolate 3D7)) (UniProt P61075); conditions: Compound concentration 1000.0 nM
[31] = biological target: Calcium/calmodulin-dependent protein kinase type IV (Homo sapiens) (UniProt Q16566); conditions: Compound concentration 1000.0 nM
Sequence of Calcium/calmodulin-dependent protein kinase type IV (Homo sapiens) (Q16566 whole entry): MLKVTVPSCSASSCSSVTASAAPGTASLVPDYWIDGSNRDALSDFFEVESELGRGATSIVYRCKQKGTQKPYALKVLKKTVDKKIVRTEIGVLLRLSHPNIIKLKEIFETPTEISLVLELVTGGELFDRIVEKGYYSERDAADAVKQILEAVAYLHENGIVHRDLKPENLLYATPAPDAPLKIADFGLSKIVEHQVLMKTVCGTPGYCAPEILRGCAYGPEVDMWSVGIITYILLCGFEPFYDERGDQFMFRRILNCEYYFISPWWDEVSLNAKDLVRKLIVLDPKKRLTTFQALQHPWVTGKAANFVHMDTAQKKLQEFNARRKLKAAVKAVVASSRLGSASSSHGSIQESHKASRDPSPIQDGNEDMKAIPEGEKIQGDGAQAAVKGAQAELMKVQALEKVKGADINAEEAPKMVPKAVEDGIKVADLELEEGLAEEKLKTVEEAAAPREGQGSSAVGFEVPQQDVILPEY

[32] = biological target: 5-hydroxytryptamine receptor 2A (Homo sapiens) (UniProt P28223); conditions: Compound concentration 10.0 uM
[33] = biological target: Dual specificity testis-specific protein kinase 1 (Homo sapiens) (UniProt Q15569); conditions: Compound concentration 1000.0 nM
[34] = biological target: Sigma non-opioid intracellular receptor 1 (Homo sapiens) (UniProt Q99720); assay: sigma (non-selective) (h) Eurofins-Cerep binding assay; parameters: ligand concentration 10 nM; conditions: filed as agonist, Compound concentration 10.0 uM
Sequence of Sigma non-opioid intracellular receptor 1 (Homo sapiens) (Q99720 whole entry): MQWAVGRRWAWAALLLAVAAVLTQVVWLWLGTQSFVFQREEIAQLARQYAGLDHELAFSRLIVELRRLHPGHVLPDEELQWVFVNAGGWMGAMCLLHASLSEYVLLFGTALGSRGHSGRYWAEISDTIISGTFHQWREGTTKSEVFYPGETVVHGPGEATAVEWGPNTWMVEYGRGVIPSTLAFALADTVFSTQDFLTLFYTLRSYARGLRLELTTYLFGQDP

[35] = biological target: Serine/threonine-protein kinase RIO2 (Homo sapiens) (UniProt Q9BVS4); conditions: Compound concentration 1000.0 nM
Sequence of Serine/threonine-protein kinase RIO2 (Homo sapiens) (Q9BVS4 whole entry, looked up): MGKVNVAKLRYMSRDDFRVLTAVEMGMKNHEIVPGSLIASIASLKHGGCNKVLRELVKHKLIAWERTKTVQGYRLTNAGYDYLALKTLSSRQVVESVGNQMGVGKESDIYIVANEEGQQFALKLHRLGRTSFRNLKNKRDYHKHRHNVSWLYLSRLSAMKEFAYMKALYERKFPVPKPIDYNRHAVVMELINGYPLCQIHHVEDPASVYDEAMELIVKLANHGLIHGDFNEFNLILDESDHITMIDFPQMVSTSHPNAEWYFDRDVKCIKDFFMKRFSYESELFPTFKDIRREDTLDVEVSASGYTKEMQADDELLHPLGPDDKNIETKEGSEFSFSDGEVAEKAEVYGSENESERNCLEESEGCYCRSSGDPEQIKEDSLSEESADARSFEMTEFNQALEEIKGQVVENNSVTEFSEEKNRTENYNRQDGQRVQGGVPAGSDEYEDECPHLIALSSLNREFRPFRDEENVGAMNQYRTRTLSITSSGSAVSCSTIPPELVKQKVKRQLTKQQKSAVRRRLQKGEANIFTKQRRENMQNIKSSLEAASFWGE

[36] = biological target: Adenosine receptor A2a (Homo sapiens) (UniProt P29274); assay: A2A (h) Eurofins-Cerep binding assay; parameters: ligand concentration 6 nM; conditions: filed as agonist, Compound concentration 10.0 uM
[37] = test system: Epidermal growth factor receptor (Homo sapiens), P00533 [T790M]; conditions: Compound concentration 1000.0 nM
[38] = biological target: Rhodopsin kinase GRK7 (Homo sapiens) (UniProt Q8WTQ7); conditions: Compound concentration 1000.0 nM
[39] = biological target: Serine/threonine-protein kinase TNNI3K (Homo sapiens) (UniProt Q59H18); conditions: Compound concentration 1000.0 nM
[40] = test system: Mast/stem cell growth factor receptor Kit (Homo sapiens), P10721 [D816H]; conditions: Compound concentration 1000.0 nM
[41] = biological target: 5'-AMP-activated protein kinase catalytic subunit alpha-2 (Homo sapiens) (UniProt P54646); conditions: Compound concentration 1000.0 nM
[42] = biological target: Mu-type opioid receptor (Homo sapiens) (UniProt P35372); conditions: Compound concentration 10.0 uM
[43] = biological target: Ephrin type-A receptor 3 (Homo sapiens) (UniProt P29320); conditions: Compound concentration 1000.0 nM
[44] = biological target: Vascular endothelial growth factor receptor 3 (Homo sapiens) (UniProt P35916); conditions: Compound concentration 1000.0 nM
Sequence of Vascular endothelial growth factor receptor 3 (Homo sapiens) (P35916 whole entry): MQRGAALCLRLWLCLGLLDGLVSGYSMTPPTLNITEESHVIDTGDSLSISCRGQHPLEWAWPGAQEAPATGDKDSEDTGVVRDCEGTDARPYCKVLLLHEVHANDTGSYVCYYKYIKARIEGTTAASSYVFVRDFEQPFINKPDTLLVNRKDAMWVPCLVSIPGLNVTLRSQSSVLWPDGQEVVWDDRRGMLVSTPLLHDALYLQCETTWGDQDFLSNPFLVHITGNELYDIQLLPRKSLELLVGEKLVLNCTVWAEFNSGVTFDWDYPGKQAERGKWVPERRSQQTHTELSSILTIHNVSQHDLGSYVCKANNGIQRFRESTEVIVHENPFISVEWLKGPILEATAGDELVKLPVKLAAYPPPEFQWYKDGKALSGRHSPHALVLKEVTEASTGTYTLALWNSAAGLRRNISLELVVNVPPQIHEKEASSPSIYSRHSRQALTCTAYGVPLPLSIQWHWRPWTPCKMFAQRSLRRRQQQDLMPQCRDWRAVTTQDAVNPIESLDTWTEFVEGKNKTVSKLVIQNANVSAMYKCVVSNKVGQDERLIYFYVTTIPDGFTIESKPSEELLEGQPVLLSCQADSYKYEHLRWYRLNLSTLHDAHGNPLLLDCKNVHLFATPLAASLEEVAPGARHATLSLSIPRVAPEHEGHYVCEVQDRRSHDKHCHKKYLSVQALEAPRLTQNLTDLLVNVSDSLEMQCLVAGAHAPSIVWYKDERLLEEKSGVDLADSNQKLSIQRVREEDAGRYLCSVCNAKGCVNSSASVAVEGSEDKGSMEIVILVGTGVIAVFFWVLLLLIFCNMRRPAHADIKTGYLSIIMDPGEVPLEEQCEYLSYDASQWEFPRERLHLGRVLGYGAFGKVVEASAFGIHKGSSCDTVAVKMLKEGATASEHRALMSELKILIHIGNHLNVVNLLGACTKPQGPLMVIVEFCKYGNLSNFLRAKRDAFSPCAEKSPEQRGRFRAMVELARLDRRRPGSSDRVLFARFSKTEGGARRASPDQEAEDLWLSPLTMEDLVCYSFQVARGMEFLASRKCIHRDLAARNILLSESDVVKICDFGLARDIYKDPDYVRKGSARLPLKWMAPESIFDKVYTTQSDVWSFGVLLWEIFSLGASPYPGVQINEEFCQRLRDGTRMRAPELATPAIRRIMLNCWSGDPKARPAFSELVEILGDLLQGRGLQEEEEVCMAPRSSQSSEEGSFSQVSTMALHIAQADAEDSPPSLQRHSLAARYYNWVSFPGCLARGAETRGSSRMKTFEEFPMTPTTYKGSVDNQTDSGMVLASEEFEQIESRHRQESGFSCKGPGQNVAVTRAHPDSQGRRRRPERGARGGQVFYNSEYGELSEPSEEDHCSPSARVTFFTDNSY

[45] = biological target: 5-hydroxytryptamine receptor 2B (Homo sapiens) (UniProt P41595); assay: 5-HT2B (h) Eurofins-Cerep binding assay; parameters: ligand concentration 0.2 nM; conditions: filed as agonist, Compound concentration 10.0 uM

Sequence of Activin receptor type-1-like (Homo sapiens) (P37023 whole entry): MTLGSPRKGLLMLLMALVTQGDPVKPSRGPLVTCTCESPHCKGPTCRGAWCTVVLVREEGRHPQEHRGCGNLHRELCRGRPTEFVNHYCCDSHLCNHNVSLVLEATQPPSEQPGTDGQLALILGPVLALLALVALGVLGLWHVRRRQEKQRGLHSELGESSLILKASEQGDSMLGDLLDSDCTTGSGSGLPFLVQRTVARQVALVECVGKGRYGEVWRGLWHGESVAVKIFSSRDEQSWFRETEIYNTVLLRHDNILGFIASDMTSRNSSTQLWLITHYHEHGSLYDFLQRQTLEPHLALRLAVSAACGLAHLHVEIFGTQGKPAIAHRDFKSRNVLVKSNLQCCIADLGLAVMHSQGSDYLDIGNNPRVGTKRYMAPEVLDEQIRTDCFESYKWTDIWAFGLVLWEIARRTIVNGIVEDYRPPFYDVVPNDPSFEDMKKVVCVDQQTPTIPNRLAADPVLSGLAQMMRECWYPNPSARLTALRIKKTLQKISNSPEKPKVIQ

For `CO[C@H]1CC[C@H](CNc2ccc(S(=O)(=O)NC(=O)c3ccc(N4CCN(CC5=C(c6ccc(Cl)cc6)CC(C)(C)CC5)CC4)cc3Oc3cnc4[nH]ccc4c3)cc2[N+](=O)[O-])CC1` [A-1211212], the residual activity [1] was 90%, the residual activity [2] was 72% and the EC50 [3] was > 5 µM (not active). It also gave a residual activity [4] of 66%, a % Inhibition of Control Specific Binding (Mean n=2) [5] of -20.3% and a residual activity [6] of 85%. For the same compound, the residual activity [7] was 54%, the residual activity [8] was 100% and the residual activity [9] was 58%. The residual activity [10] was 100%, the residual activity [11] was 87% and the residual activity [12] was 88%. The residual activity [13] was 70%, the residual activity [14] was 100% and the residual activity [15] was 96%. For the same compound, the residual activity [16] was 50%, the residual activity [17] was 100% and the residual activity [18] was 100%. The residual activity [19] was 100%, the residual activity [20] was 100% and the residual activity [21] was 84%. The residual activity [22] was 98%, the % Inhibition of Control Specific Binding (Mean n=2) [23] was 28.5% and the residual activity [24] was 100%. The residual activity [25] was 100%, the residual activity [26] was 100% and the % Inhibition of Control Specific Binding (Mean n=2) [27] was 29.7%. For the same compound, the residual activity [28] was 96%, the residual activity [29] was 89% and the residual activity [30] was 100%. The residual activity [31] was 100%, the inhibition [32] was 12.7% and the residual activity [33] was 100%. The % Inhibition of Control Specific Binding (Mean n=2) [34] was 22.4%, the residual activity [35] was 89% and the % Inhibition of Control Specific Binding (Mean n=2) [36] was -4.4%. For the same compound, the residual activity [37] was 98%, the residual activity [38] was 100% and the residual activity [39] was 85%. The residual activity [40] was 76%, the residual activity [41] was 93% and the inhibition [42] was 10.2%. It also gave a residual activity [43] of 90%, a residual activity [44] of 89% and a % Inhibition of Control Specific Binding (Mean n=2) [45] of -142%.

In the case of `O=C(NS(=O)(=O)c1ccc(NCC2CCOCC2)c([N+](=O)[O-])c1)c1ccc(N2CCN(Cc3ccc(C(F)(F)F)cc3-c3ccc(Cl)cc3)CC2)cc1Oc1cnc2[nH]ccc2c1` [A-1210227], the residual activity [1] is reported as 95%, the residual activity [2] is reported as 77% and the EC50 [3] is reported as > 5 µM (not active). The residual activity [4] was 77%, the % Inhibition of Control Specific Binding (Mean n=2) [5] was -42% and the residual activity [6] was 100%. The residual activity [7] was 55%, the residual activity [8] was 100% and the residual activity [9] was 86%. The residual activity [10] was 100%, the residual activity [11] was 96% and the residual activity [12] was 100%. For the same compound, the residual activity [13] was 79%, the residual activity [14] was 99% and the residual activity [15] was 100%. For the same compound, the residual activity [16] was 65%, the residual activity [17] was 100% and the residual activity [18] was 100%. For the same compound, the residual activity [19] was 92%, the residual activity [20] was 100% and the residual activity [21] was 89%. The residual activity [22] was 75%, the % Inhibition of Control Specific Binding (Mean n=2) [23] was 9.3% and the residual activity [24] was 100%. The residual activity [25] was 100%, the residual activity [26] was 90% and the % Inhibition of Control Specific Binding (Mean n=2) [27] was 2.2%. For the same compound, the residual activity [28] was 99%, the residual activity [29] was 95% and the residual activity [30] was 100%. It also gave a residual activity [31] of 100%, an inhibition [32] of 12.5% and a residual activity [33] of 100%. It also gave a % Inhibition of Control Specific Binding (Mean n=2) [34] of -104%, a residual activity [35] of 90% and a % Inhibition of Control Specific Binding (Mean n=2) [36] of 1.3%. The residual activity [37] was 98%, the residual activity [38] was 78% and the residual activity [39] was 95%. For the same compound, the residual activity [40] was 76%, the residual activity [41] was 100% and the inhibition [42] was 10.7%. The residual activity [43] was 100%, the residual activity [44] was 100% and the % Inhibition of Control Specific Binding (Mean n=2) [45] was -51.4%.
